# Data taken from patent publication US20150344540A1, “NOVEL GLP-1 RECEPTOR AGONISTS WITH CHOLESTEROL EFFLUX ACTIVITY” (NOVO NORDISK A/S, priority 2012, published 2015).
# Where a SMILES comes first, the peptide text is derived from it. [ ]: non-standard residue; d: D form. Aib = CC(C)(N)C(=O)O
# System: Mouse monocyte/macrophage cell line, RAW 264.7
# Assay: Cholesterol efflux assay (3H-cholesterol, macrophage cell line)
# Assay type: cell-based
# Conditions: RAW 264.7, 4 hrs incubation, 0.1% human serum albumin, ABCA1-mediated efflux
row,Compound,4 h Cholesterol Efflux Emax
1,"CC[C@H](C)[C@H](NC(=O)[C@H](Cc1ccccc1)NC(=O)[C@H](CCC(N)=O)NC(=O)[C@H](CCCCN)NC(=O)[C@@H](NC(=O)[C@H](C)NC(=O)[C@H](CCC(N)=O)NC(=O)CNC(=O)[C@H](CCC(=O)O)NC(=O)[C@H](CC(C)C)NC(=O)[C@H](Cc1ccc(O)cc1)NC(=O)[C@H](CO)NC(=O)[C@H](CO)NC(=O)[C@@H](NC(=O)[C@H](CC(=O)O)NC(=O)[C@H](CO)NC(=O)[C@@H](NC(=O)[C@H](Cc1ccccc1)NC(=O)[C@@H](NC(=O)CNC(=O)[C@H](CCC(=O)O)NC(=O)C(C)(C)NC(=O)[C@@H](N)Cc1c[nH]cn1)[C@@H](C)O)[C@@H](C)O)C(C)C)C(C)C)C(=O)N[C@@H](C)C(=O)N[C@@H](Cc1c[nH]c2ccccc12)C(=O)N[C@@H](CC(C)C)C(=O)N[C@H](C(=O)N[C@@H](CCC(N)=O)C(=O)N[C@@H](CCCCN)C(=O)NC(C)(C)C(=O)N[C@@H](CCCCN)C(=O)N[C@@H](CCC(N)=O)C(=O)N[C@@H](Cc1ccccc1)C(=O)N[C@@H](CC(C)C)C(N)=O)C(C)C [Compound 102, [Aib8,Val25,Gln27,Gln34,Lys35,Aib36,Lys37]-GLP-1-(7-37)-peptidyl-Gln-Phe-Leu amide] (H-H[Aib]EGTFTSDVSSYLEGQAVKQFIAWLVQK[Aib]KQFL-NH2)",100%
2,"H-HAEGTFTSDVSSYLEGQAAKEFIAWLVEKVKEHLEK-OH [Compound 126, [Glu34,Lys35,Val36,Lys37]-GLP-1-(7-37)-peptidyl-Glu-His-Leu-Glu-Lys]",102%
3,"CC[C@H](C)[C@H](NC(=O)[C@H](Cc1ccccc1)NC(=O)[C@H](CCC(=O)O)NC(=O)[C@H](CCCNC(=N)N)NC(=O)[C@@H](NC(=O)[C@H](C)NC(=O)[C@H](CCC(=O)O)NC(=O)[C@H](CCC(=O)O)NC(=O)[C@H](CCC(=O)O)NC(=O)[C@H](CCSC)NC(=O)[C@H](CCC(N)=O)NC(=O)[C@H](CCCCN)NC(=O)[C@H](CO)NC(=O)[C@H](CC(C)C)NC(=O)[C@H](CC(=O)O)NC(=O)[C@H](CO)NC(=O)[C@@H](NC(=O)[C@H](Cc1ccccc1)NC(=O)[C@@H](NC(=O)CNC(=O)[C@H](CCC(=O)O)NC(=O)C(C)(C)NC(=O)[C@@H](N)Cc1c[nH]cn1)[C@@H](C)O)[C@@H](C)O)C(C)C)C(=O)N[C@@H](CCC(=O)O)C(=O)N[C@@H](Cc1c[nH]c2ccccc12)C(=O)N[C@@H](CC(C)C)C(=O)N[C@@H](CCCCN)C(=O)N[C@@H](CC(N)=O)C(=O)N[C@@H](CCCCN)C(=O)NC(C)(C)C(=O)N[C@@H](CC(C)C)C(=O)N[C@@H](CCC(=O)O)C(=O)N[C@@H](Cc1ccccc1)C(=O)N[C@@H](CC(C)C)C(=O)N[C@@H](C)C(=O)N[C@@H](CC(C)C)C(=O)N[C@@H](CC(C)C)C(N)=O [Compound 41, [Aib2,Glu21,Lys29,Aib30,Leu31,Glu32,Phe33,Leu34,Leu36,Leu371-Exendin-4-(1-37)-peptide amide] (H-H[Aib]EGTFTSDLSKQMEEEAVREFIEWLKNK[Aib]LEFLALL-NH2; N-terminus assumed)",98%
